Legend:
Assay type in all cases: in vivo
[1] = tested on: Glyphosate susceptible marestail (ERICA); test: Greenhouse test, post-emergence control of glyphosate susceptible marestail; conditions: use rate 420 g/ha
Text: (§1) The phenyluracils I and/or the other active ingredients according to the present invention were formulated in a suitable way, either separately or in mixture, e.g. as emulsifiable concentrates (EC), soluble concentrates (SL), suspo-emulsions (SE), suspension concentrates (SC) or water-dispersible granules (WG). The formulation(s) were suspended or emulsified in water as a distribution medium immediately prior to spraying. Afterwards, the aqueous mixture was evenly sprayed on the test plots or plant pots by means of finely distributing nozzles.
(§2) For the greenhouse tests, plants were grown in pots to a height between 3 and 6 cm, and then treated (post-emergence). During the test period of 29 days, the plants were tended.
(§3) The evaluation of the damage caused by the phenyluracils I and/or the other active ingredients according to the present invention was carried out using a scale from 0 to 100%, compared to the untreated control plots. Here, 0 means no damage and 100 means complete destruction of the plants of a respective weed or crop species.
(§4) In this example, glyphosate (isopropylammonium salt) was formulated as a 353 g/l SL and Phenyluracil I.7 as a 120 g/l EC. Prior to application, the formulated active ingredients were tank-mixed with an aqueous 187 l/ha spray solution which contained, in addition, 15 g/l of ammonium sulphate and 2.5 g/l of non-ionic surfactant.

[2] = tested on: Glyphosate resistant cotton; test: Field test, control of glyphosate resistant cotton in post-directed treatment; conditions: glyphosate 560 g/ha
Protocol: (§5) In the examples below, the value E which is to be expected if the activity of the individual compounds is just additive was calculated using the method of S. R. Colby (1967) “Calculating synergistic and antagonistic responses of herbicide combinations”, Weeds 15, p. 22 ff.
(§6) where X=effect in percent using active compound A at an application rate a; Y=effect in percent using active compound B at an application rate b; E=expected effect (in %) of A+B at application rates a+b.
(§7) If the experimentally determined value is higher than the value E calculated according to Colby's equation, a synergistic effect is present.
as §1
(§8) As regards the field tests, the test plots were of uniform size (typically between 14 and 37 square meters, each) and the distribution of treated and untreated plots was organized according to a randomised bloc design. […]

[3] = tested on: Glyphosate resistant marestail (ERICA); test: Greenhouse test, post-emergence control of glyphosate resistant marestail; conditions: use rate 420 g/ha
Text: as §1, §2, §3, §4

[4] = tested on: glyphosate resistant corn; test: Field test, control of volunteer glyphosate resistant corn by pre-emergence application; conditions: Imazethapyr 70 g/ha, pre-emergence to soybean crop
Protocol: as §5, §6, §7, §1, §8

Row | Structure (SMILES) | Glyphosate susceptible marestail (ERICA) at 29 DAT (% herbicide control) [1] [%] | Glyphosate resistant cotton at 3 DAT (% control), Found [2] [%] | Glyphosate resistant marestail (ERICA) at 29 DAT (% herbicide control) [3] [%] | Control of glyphosate resistant corn at 29 DAT (% control), Found [4] [%]
1 | O=C(O)CNCP(=O)(O)O [Glyphosate, glyphosate] | 98 | 0 | 0 | –
2 | CCc1cnc(C2=NC(C)(C(C)C)C(=O)N2)c(C(=O)O)c1 (stereo not shown) [Imazethapyr, imazethapyr] | – | – | – | 23

Source: patent publication US20080227637A1, “A Method of Controlling Weeds” (BASF Aktiengesellschaft, priority 2005, published 2008)
